{
  "source": "patent US10357486B2",
  "about": "“Treatment of cognitive impairment with PDE4 inhibitor” (Universiteit Maastricht, priority 2013, dated 2019)",
  "tested_on": "60 to 80 years old subjects (Impaired Elderly and Healthy Elderly)",
  "test": "Verbal Learning Task (VLT) in 60 to 80 years old subjects, interim analysis",
  "format": "in vivo, human",
  "experimental": "The study is conducted according to a double-blind, placebo-controlled, four-period cross-over design. Forty healthy subjects, both male and female within an age range of 60 to 80 years are planned to be included in the study in 2 groups: 1) 20 subjects with a memory performance between 1-2 Standard Deviation below the average for their age, gender, and educated level (Impaired Elderly) and 2) 20 subjects with age (±3 years), gender, and educational level matched (in order to speed up the study matching was stopped after the interim analysis) with an average memory performance between 0.5 Standard Deviation below and 0.5 Standard Deviation above from normative values (Healthy Elderly). Classification in terms of impaired or healthy elderly will be determined by a one-off testing of memory performance using the Rey Verbal Learning Task (Rey A; L'examen psychologique dans les cas d'encephalopathy traumatique 1958 Paris; Presses Universitaire de France; or Van der Elst et al; J Int Neuropsychol Soc 2005, 11 (3), pp 290-302) according to fully standardized procedures as applied in The Maastricht Aging Study (Jolles et al; Maastricht Aging Study; determinants of cognitive aging; Maastricht, The Netherlands, Neuropsych Publishers 1995). Normative data for each individual subject will be derived also from the Maastricht Aging Study using the regression formula as described by Van der Elst et al (Van der Elst et al; J Int Neuropsychol Soc 2005, 11 (3), pp 290-302).\nAll subjects within their corresponding groups (either Healthy Elderly n=20 or Impaired Elderly n=20) will be randomized in a double blind fashion to 1 of 4 treatment sequences, each sequence consisting of the following periods: A) Placebo+placebo; B) Roflumilast 100 mcg+placebo; C) Roflumilast […]+placebo and D) Roflumilast 1000 mcg (500+500 mcg) according to a computer-generated allocation schedule in a cross-over design. Between each of the four treatment sequences there will be a 12 days washout period.\nCognitive status will be quantified using computerized cognitive battery, a validated tool for measuring the cognitive impairment in humans. The battery will consist of: VLT, Spatial Memory Task (SMT), Stroop Task, and Bond-Lader Visual Analogue Scales (BL-VAS).\nVerbal learning task (VLT) The Rey VLT as modified by Riedel and colleagues (Riedel, Klaasen et al, Psychopharmacology (Berlin) 1999 Vol 141(4) pp 362-369) is used. This modified VLT maximizes the possibility of measuring enhancement rather than only impairment, by means of prolonging the list. The test consists of a list of 30 monosyllabic words (18 nouns and 12 adjectives). The words are shown on a computer screen for 1 second. Three trials with the same item sequence are presented. Each trial ends with a free recall of the words (immediate recall). Forty-five minutes after the first exposure, the subject is asked to recall as many words as possible (delayed recall). […] The words are shown on a computer screen for 2 seconds and subjects are asked to rate whether they were presented in the learning trial by a “yes/no” response. The inter-word interval is 2 seconds. 24 Hours after the immediate recall, subjects will return to the lab for a second delayed recall and recognition. The remaining 15 old words and 15 new words will be presented during recognition. EEG will be recorded during the immediate recall and the first recognition test on the test day. […]",
  "data": [
    {"smiles": "O=C(Nc1c(Cl)cncc1Cl)c1ccc(OC(F)F)c(OCC2CC2)c1", "note": "[roflumilast, N-(3,5-dichloropyridin-4-yl)-3-cyclopropylmethoxy-4-difluoromethoxybenzamide]", "values": [
      {"measurement": "number of words on the 3rd trial of VLT", "setting": "100 mcg single dose, elderly subjects, placebo 8.81", "value": 10.28, "unit": "words"},
      {"measurement": "placebo-corrected fold-improvement in VLT", "setting": "100 mcg single dose, interim data of the elderly study", "value": 1.16},
      {"measurement": "increase in the number of correct words recalled after 45 min delayed recall trial of VLT, compared to placebo", "setting": "100 mcg single dose, pooled interim analysis", "value": 1.7, "unit": "words"},
      {"measurement": "increase in the number of correct words immediately recalled after the 3rd trial of VLT, compared to placebo", "setting": "100 mcg single dose, pooled interim analysis, 9 Impaired and 4 Healthy Elderly", "value": 1.5, "unit": "words"},
      {"measurement": "increase in the number of correct words recalled after 45 min delayed recall trial of VLT, compared to placebo", "setting": "1000 mcg single dose, pooled interim analysis", "value": 1.6, "unit": "words"}
    ]}
  ]
}
